Source: PMC10120574 (Biochemistry, 2022)

Columns and labels:
437 = assay: UV ketonization assay, decay of enol at […] nm; format: biochemical, Calothrix sp. PCC 6303; settings: read-out: 437 / Km; 10 mM Na2HPO4, pH 8.3, 22 °C; 5-75 μM substrate
Nterm1 = Nterm1 (UniProt position 2, ----MPLLKFD); assay: NMR; settings: not stated (presumably free enzyme); cited from earlier work

For `O=C(O)C=CC=C(O)C(=O)O` [2-HM, 2-Hydroxymuconate], which Km 437 is on record?
The Km was 34 ± 12 µM.

With “Malonate semialdehyde decarboxylase (Pp MSAD) (Pseudomonas pavonaceae 170)” as the compound, how does the pKa (Nterm1) read?
Its pKa is roughly 9.2.
